# Test results from patent US20080103205A1, “Pesticidal compositions and methods of use” (priority 2006, published 2008).
# “And” between values parts separate entries of the source, which are not always exact repeats. Identical values can stand only once. Like-named read-outs stand apart in the source and are kept apart here.
# Experiments:
# [1] = system: Meloidogyne incognita eggs; experiment: M. incognita egg hatching; format: in vivo
# Experimental: Meloidogyne incognita (plant parasitic nematode) eggs were collected from tomato plant roots and were suspended in water. The solution was either diluted or concentrated to adjust the egg load to about 5000/ml. AT stock solutions prepared in DMSO and 300 ul of test solution was placed in a well, along with 20 ul of aqueous solution containing eggs. The number of eggs in 20 ul solution ranged from 115 to 143 (n=10). Each treatment (2, 5, 10, 20, or 40 ppm) was replicated 5 times. Microplates were sealed with Parafilm™ and incubated at room temperature. Similar tests conducted with 0.2% DMSO alone served as controls. Egg hatching was monitored at 24, 72, 120, and 168 hr after incubation. Both moving and non-moving nematodes were counted to arrive at the number of eggs hatched. Proportion of egg hatch was calculated as the number of juveniles divided by total number of eggs.
# VSCC blockers effect on M. incognita egg hatching is shown in the following tables where % hatched is rounded to the nearest percentage point and where “% C*” is % hatch, normalized to control.
# [2] = system: European corn borer (Ostrinia nubilalis); experiment: Diet surface test on European corn borer larvae (2nd instar); format: in vivo; conditions: for mortality at 6.25 ppm / mortality at 12.5 ppm / mortality at 25 ppm / mortality at 50 ppm: Ostrinia nubilalis, read-out: % Mortality
# Experimental: Concentrations of 6.25, 12.5, 25, or 50 ppm AT blocker were prepared in 95% ethyl alcohol (EtOH). 95% EtOH alone served as control. European corn borer (ECB) diet prepared from the powdered diet supplied by French Agricultural Research, Inc. Diet (1-2 ml) was poured into small cups and allowed to cool to room temperature. Test solution (100 ul) was placed onto the diet surface and allowed to evaporate the solvent. Each concentration of chemical had 2 sets of 10 cups each. One late 2nd instar larva was placed in each cup and covered with lid having perforations for aeration. Cups were placed in an incubator for 7 days at 25±1° C. and 70±5% RH. After seven days, the weight of each larva was taken and any mortality was recorded. Then, the surviving larvae were transferred to fresh diet cups holding sufficient diet (5-6 ml) without chemicals and incubated at 25±1° C. and 70±5% RH until pupation. Weights of larvae were taken 14 days after transferring to fresh diet (21 days after start of treatment). Finally, the number of days until pupation was recorded.
# Anion transporters caused larval death and a reduction in weight gain within 7 days exposure. The effect persisted for 2 weeks time on untreated diet, but total time to pupation was relatively unaffected.
# [3] = 6.25 ppm, 21 days after feeding
# [4] = 12.5 ppm, 21 days after feeding
# [5] = 50 ppm, 7 days after feeding, 10 larvae treated
# [6] = 50 ppm, 21 days after feeding, 10 larvae treated
smiles,measurement,setting,value
"O=S(=O)(O)c1cc(N=C=S)ccc1/C=C/c1ccc(N=C=S)cc1S(=O)(=O)O [DIDS, trans-4,4′-diisothiocyanatostilbene-2,2′-disulfonic acid, reference compound]",Eggs Hatched %,"[1]; 2 ppm, 24 hr",10%
same,"Eggs Hatched % C* (% hatch, normalized to control)","[1]; 2 ppm, 24 hr",100%
same,Eggs Hatched No.,"[1]; 2 ppm, 24 hr",66
same,Eggs Hatched %,"[1]; 2 ppm, 72 hr",14%
same,"Eggs Hatched % C* (% hatch, normalized to control)","[1]; 2 ppm, 72 hr",87%
same,Eggs Hatched No.,"[1]; 2 ppm, 72 hr",95
same,Eggs Hatched %,"[1]; 2 ppm, 120 hr",19%
same,"Eggs Hatched % C* (% hatch, normalized to control)","[1]; 2 ppm, 120 hr",86%
same,Eggs Hatched No.,"[1]; 2 ppm, 120 hr",128
same,Eggs Hatched %,"[1]; 2 ppm, 168 hr",22%
same,"Eggs Hatched % C* (% hatch, normalized to control)","[1]; 2 ppm, 168 hr",79%
same,Eggs Hatched No.,"[1]; 2 ppm, 168 hr",162
same,Eggs Hatched %,"[1]; 5 ppm, 24 hr",9%
same,"Eggs Hatched % C* (% hatch, normalized to control)","[1]; 5 ppm, 24 hr",90%
same,Eggs Hatched No.,"[1]; 5 ppm, 24 hr",62
same,Eggs Hatched %,"[1]; 5 ppm, 72 hr",13%
same,"Eggs Hatched % C* (% hatch, normalized to control)","[1]; 5 ppm, 72 hr",81%
same,Eggs Hatched No.,"[1]; 5 ppm, 72 hr",91
same,Eggs Hatched %,"[1]; 5 ppm, 120 hr",17%
same,"Eggs Hatched % C* (% hatch, normalized to control)","[1]; 5 ppm, 120 hr",77%
same,Eggs Hatched No.,"[1]; 5 ppm, 120 hr",129
same,Eggs Hatched %,"[1]; 5 ppm, 168 hr",21%
same,"Eggs Hatched % C* (% hatch, normalized to control)","[1]; 5 ppm, 168 hr",75%
same,Eggs Hatched No.,"[1]; 5 ppm, 168 hr",159
same,Eggs Hatched %,"[1]; 10 ppm, 24 hr",9%
same,"Eggs Hatched % C* (% hatch, normalized to control)","[1]; 10 ppm, 24 hr",90%
same,Eggs Hatched No.,"[1]; 10 ppm, 24 hr",60
same,Eggs Hatched %,"[1]; 10 ppm, 72 hr",13%
same,"Eggs Hatched % C* (% hatch, normalized to control)","[1]; 10 ppm, 72 hr",81%
same,Eggs Hatched No.,"[1]; 10 ppm, 72 hr",83
same,Eggs Hatched %,"[1]; 10 ppm, 120 hr",15%
same,"Eggs Hatched % C* (% hatch, normalized to control)","[1]; 10 ppm, 120 hr",68%
same,Eggs Hatched No.,"[1]; 10 ppm, 120 hr",103
same,Eggs Hatched %,"[1]; 10 ppm, 168 hr",18%
same,"Eggs Hatched % C* (% hatch, normalized to control)","[1]; 10 ppm, 168 hr",64%
same,Eggs Hatched No.,"[1]; 10 ppm, 168 hr",136
same,Eggs Hatched %,"[1]; 20 ppm, 24 hr",8%
same,"Eggs Hatched % C* (% hatch, normalized to control)","[1]; 20 ppm, 24 hr",80%
same,Eggs Hatched No.,"[1]; 20 ppm, 24 hr",51
same,Eggs Hatched %,"[1]; 20 ppm, 72 hr",11%
same,"Eggs Hatched % C* (% hatch, normalized to control)","[1]; 20 ppm, 72 hr",69%
same,Eggs Hatched No.,"[1]; 20 ppm, 72 hr",64
same,Eggs Hatched %,"[1]; 20 ppm, 120 hr",12%
same,"Eggs Hatched % C* (% hatch, normalized to control)","[1]; 20 ppm, 120 hr",55%
same,Eggs Hatched No.,"[1]; 20 ppm, 120 hr",79
same,Eggs Hatched %,"[1]; 20 ppm, 168 hr",15%
same,"Eggs Hatched % C* (% hatch, normalized to control)","[1]; 20 ppm, 168 hr",54%
same,Eggs Hatched No.,"[1]; 20 ppm, 168 hr",99
same,Eggs Hatched %,"[1]; 40 ppm, 24 hr",7%
same,"Eggs Hatched % C* (% hatch, normalized to control)","[1]; 40 ppm, 24 hr",70%
same,Eggs Hatched No.,"[1]; 40 ppm, 24 hr",48
same,Eggs Hatched %,"[1]; 40 ppm, 72 hr",10%
same,"Eggs Hatched % C* (% hatch, normalized to control)","[1]; 40 ppm, 72 hr",62%
same,Eggs Hatched No.,"[1]; 40 ppm, 72 hr",55
same,Eggs Hatched %,"[1]; 40 ppm, 120 hr",10%
same,"Eggs Hatched % C* (% hatch, normalized to control)","[1]; 40 ppm, 120 hr",45%
same,Eggs Hatched No.,"[1]; 40 ppm, 120 hr",63
same,Eggs Hatched %,"[1]; 40 ppm, 168 hr",11%
same,"Eggs Hatched % C* (% hatch, normalized to control)","[1]; 40 ppm, 168 hr",39%
same,Eggs Hatched No.,"[1]; 40 ppm, 168 hr",75
same,Days for pupation,[2]; 6.25 ppm,24.6 days and 25.0 days
same,% wt reduction to control,"[2]; 6.25 ppm, 7 days after feeding",12.76% and 9.12%
same,"Mean wt of survived larvae, mg","[2]; 6.25 ppm, 7 days after feeding",41.56 (10) mg and 44.84 (10) mg
same,No. dead,"[2]; 6.25 ppm, 7 days after feeding, 10 larvae",0
same,% wt reduction to control,[2]; [3],5.69% and 7.74%
same,"Mean wt of survived larvae, mg",[2]; [3],156.66 (10) mg and 135.14 (10) mg
same,No. dead,"[2]; 6.25 ppm, 21 days after feeding, 10 larvae",0
same,Days for pupation,[2]; 12.5 ppm,25.2 days and 25.8 days
same,% wt reduction to control,"[2]; 12.5 ppm, 7 days after feeding",39.67% and 36.72%
same,"Mean wt of survived larvae, mg","[2]; 12.5 ppm, 7 days after feeding",28.74 (10) mg and 31.22 (10) mg
same,No. dead,"[2]; 12.5 ppm, 7 days after feeding, 10 larvae",0
same,% wt reduction to control,[2]; [4],32.84% and 33.04%
same,"Mean wt of survived larvae, mg",[2]; [4],111.56 (10) mg and 98.08 (10) mg
same,No. dead,"[2]; 12.5 ppm, 21 days after feeding, 10 larvae",0
same,Days for pupation,[2]; 25 ppm,27.25 days and 27.0 days
same,% wt reduction to control,"[2]; 25 ppm, 7 days after feeding",66.06% and 65.00%
same,"Mean wt of survived larvae, mg","[2]; 25 ppm, 7 days after feeding",16.17 (8) mg and 17.26 (6) mg
same,No. dead,"[2]; 25 ppm, 7 days after feeding, 10 larvae",2 and 4
same,% wt reduction to control,"[2]; 25 ppm, 21 days after feeding",70.08% and 70.62%
same,"Mean wt of survived larvae, mg","[2]; 25 ppm, 21 days after feeding",49.70 (6) mg and 43.03 (6) mg
same,No. dead,"[2]; 25 ppm, 21 days after feeding, 10 larvae",4
same,Days for pupation,[2]; 50 ppm in (Hepes),24.6 days
same,"Mean wt of survived larvae, mg","[2]; 50 ppm in (Hepes), 7 days after feeding",43.33 mg
same,No. dead,"[2]; 50 ppm in (Hepes), 7 days after feeding, 10 larvae",0
same,"Mean wt of survived larvae, mg","[2]; 50 ppm in (Hepes), 21 days after feeding",137.36 mg
same,No. dead,"[2]; 50 ppm in (Hepes), 21 days after feeding, 10 larvae",0
same,% wt reduction to control,"[2]; 50 ppm, 7 days after feeding",87.93% and 92.70%
same,Mean wt of survived larvae,"[2]; 50 ppm, 7 days after feeding",43.33 mg
same,"Mean wt of survived larvae, mg","[2]; 50 ppm, 7 days after feeding",5.75 (4) mg and 3.60 (1) mg
same,No. dead,"[2]; 50 ppm, 7 days after feeding, 10 larvae",6 and 8
same,# surviving,[2]; [5],10
same,No. dead,[2]; [5],0
same,% wt reduction to control,"[2]; 50 ppm, 21 days after feeding",0%
same,Mean wt of survived larvae,"[2]; 50 ppm, 21 days after feeding",137.36 mg
same,"Mean wt of survived larvae, mg","[2]; 50 ppm, 21 days after feeding",0 mg
same,No. dead,"[2]; 50 ppm, 21 days after feeding, 10 larvae",10
same,# surviving,[2]; [6],10
same,No. dead,[2]; [6],0
same,mortality at 6.25 ppm,"[2]; 168 h, 6.25 ppm, 7 days after feeding",0%
same,mortality at 12.5 ppm,"[2]; 168 h, 12.5 ppm, 7 days after feeding",0%
same,mortality at 25 ppm,"[2]; 168 h, 25 ppm, 7 days after feeding",20%
same,mortality at 50 ppm,"[2]; 168 h, 50 ppm in (Hepes), 7 days after feeding",0%
same,mortality at 6.25 ppm,"[2]; 504 h, 6.25 ppm, 21 days after feeding",0%
same,mortality at 12.5 ppm,"[2]; 504 h, 12.5 ppm, 21 days after feeding",0%
same,mortality at 25 ppm,"[2]; 504 h, 25 ppm, 21 days after feeding",40%
same,mortality at 50 ppm,"[2]; 504 h, 50 ppm in (Hepes), 21 days after feeding",0%
